Test results as given in US20220348572A1, “BRIDGED HETEROCYCLYL-SUBSTITUTED PYRIMIDINE COMPOUND, PREPARATION METHOD THEREFOR, AND PHARMACEUTICAL USE THEREOF” (The National Institutes of Pharmaceutical R&D Co., Ltd., priority 2019, published 2022).

target: T1, JAK1 kinase (Homo sapiens, UniProt P23458); assay: In vitro inhibitory activity on JAK1 kinase (ADP-Glo Kinase Assay); format: biochemical; details: JAK1 kinase 4 nM, 1 mM ATP
T1 construct: purchased Invitrogen PV4744
Experimental: Test Example 1: Determination of In Vitro Inhibitory Activity of the Compounds of the Present Invention on JAK1 Kinase Experimental materials: JAK1 kinase (Invitrogen, PV4744), ATP (Promega, V915B), ADP-Glo Kinase Assay (Promega, V9101), IRS1 (Signalchem, 140-58-1000). Sample preparation: The compounds of the present invention and the control product were dissolved in DMSO solvent respectively to formulate into 10 mM initial liquid. The maximum concentration of the compound was 10 μM, 3-fold dilution, 10 concentration gradients, and duplicate wells for each concentration gradient. Experimental processs: 0.1 μL of the compound to be tested was transferred into a 384 reaction plate (PE, 6007290) via Echo and centrifuged at 1000 rpm/min for 1 min. 5 μL JAK1 kinase (final concentration of 4 nM) was transferred into the 384 reaction plate, which was then centrifuged at 1000 rpm/min for 1 min, and incubated at 25° C. for 15 min. 5 μL substrate mixture (1 mM ATP, IRS1 0.05 mg/ml, kinase buffer solution) was transferred into the 384 reaction plate, which was then centrifuged at 1000 rpm/min for 1 min, and incubated at 25° C. for 60 min. 10 μL ADP-Glo was transferred into the 384 reaction plate, which was then centrifuged at 1000 rpm/min for 1 min, and incubated at 25° C. for 40 min. 20 μL test solution was transferred into the 384 reaction plate, which was then centrifuged at 1000 rpm/min for 1 min and incubated at 25° C. for 40 min. RLU (Relative luminescence unit) signal was read by using an Envision multifunctional plate reader. The signal intensity was used to characterize the degree of the kinase activity. […] IC50 value of 0-100 nM is shown as A, IC50 value of 100-300 nM is shown as B, IC50 value of 300-1000 nM is shown as C, and IC50 value which is greater than 1000 nM is shown as D. NT means not tested.

T1 sequence (P23458 866-1154 limits assumed): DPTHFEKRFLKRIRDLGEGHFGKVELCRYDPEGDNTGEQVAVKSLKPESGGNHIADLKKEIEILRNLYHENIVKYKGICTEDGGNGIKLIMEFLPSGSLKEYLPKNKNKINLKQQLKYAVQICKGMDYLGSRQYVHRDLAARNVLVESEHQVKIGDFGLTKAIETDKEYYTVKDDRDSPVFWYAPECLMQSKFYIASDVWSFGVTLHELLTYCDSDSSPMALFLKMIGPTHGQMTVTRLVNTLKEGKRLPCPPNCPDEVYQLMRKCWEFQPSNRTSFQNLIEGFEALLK

`C[C@@H](NC(=O)N1C2C=C(c3ccnc(Nc4cnn(C)c4)n3)CC1CC2)C(F)(F)F` (stereo partly drawn) [Compound 56, 3-(2-((1-Methyl-1H-pyrazol-4-yl)amino)pyrimidin-4-yl)-N-((R)-1,1,1-trifluoropropane-2-yl)-8-azabicyclo[3.2.1]oct-2-ene-8-carboxamide] and `CC(C(=O)N1C2C=C(c3ccnc(Nc4cnn(C)c4)n3)CC1CC2)C(F)(F)F` (stereo not shown) [Compound 67, 3,3,3-trifluoro-2-methyl-1-(3-(2-((1-methyl-1H-pyrazol-4-yl)amino)pyrimidin-4-yl)-8-azabicyclo[3.2.1]oct-2-en-8-yl)-1-acetone] fall in the same range of IC50: 300 to 1000 nM for the first, 300 to 1000 nM for the second.

Compared with `O=C([C@@H]1CC1(F)F)N1C2C=C(c3ccnc(Nc4cnn(C5CC5)c4)n3)CC1CC2` (stereo partly drawn) [Compound 36, (3-(2-((1-cyclopropyl-1H-pyrazol-4-yl)amino)pyrimidin-4-yl)-8-azabicyclo[3.2.1]oct-2-en-8-yl)((S)-2,2-difluorocyclopropyl)methanone], `O=C([C@@H]1CC1(F)F)N1C2C=C(c3ccnc(Nc4cnn(C5COC5)c4)n3)CC1CC2` (stereo partly drawn) [Compound 37, ((S)-2,2-difluorocyclopropyl)(3-(2-((1-(oxetan-3-yl)-1H-pyrazol-4-yl)amino)pyrimidin-4-yl)-8-azabicyclo[3.2.1]oct-2-en-8-yl)methanone] is higher in IC50: 100 to 300 nM for the first, 300 to 1000 nM for the second. The first is the more potent here.

`Cc1cnc(Nc2cnn(CC(C)(C)O)c2)nc1C1=C[C@H]2CC[C@@H](C1)N2C(=O)NCC(F)(F)F` [Compound 29-b, (1R,5S)-3-(2-((1-(2-Hydroxy-2-methylpropyl)-1H-pyrazol-4-yl)amino)-5-methylpyrimidin-4-yl)-N-(2,2,2-trifluoroethyl)-8-azabicyclo[3.2.1]oct-2-ene-8-carboxamide] and `Cc1cnc(Nc2cnn(CCO)c2)nc1C1=CC2CCC(C1)N2C(=O)NCC(F)(F)F` (stereo not shown) [Compound 28, 3-(2-((1-(2-hydroxyethyl)-1H-pyrazol-4-yl)amino)-5-methylpyrimidin-4-yl)-N-(2,2,2-trifluoroethyl)-8-azabicyclo[3.2.1]oct-2-ene-8-carboxamide] cannot be ordered by IC50: < 100 nM for the first, < 100 nM for the second.

Compared with `Cn1cc(Nc2nccc(C3=CC4CCC(C3)N4C(=O)C3CC3(F)Cl)n2)cn1` (stereo not shown) [Compound 50, (2-chloro-2-fluorocyclopropyl)(3-(2-((1-methyl-1H-pyrazol-4-yl)amino)pyrimidin-4-yl)-8-azabicyclo[3.2.1]oct-2-en-8-yl)methanone], `Cn1cc(Nc2nccc(C3=CC4CCC(C3)N4C(=O)C34CC(C3)C4)n2)cn1` (stereo not shown) [Compound 72, bicyclo[1.1.1]pentan-1-yl(3-(2-((1-methyl-1H-pyrazol-4-yl)amino)pyrimidin-4-yl)-8-azabicyclo[3.2.1]oct-2-en-8-yl)methanone] is higher in IC50: 100 to 300 nM for the first, > 1000 nM for the second. The first is the more potent here.

First: Cn1cc(Nc2ncc(C(F)(F)F)c(C3=CC4CCC(C3)N4C(=O)NCC(F)(F)F)n2)cn1 (stereo not shown) [Compound 25, 3-(2-((1-Methyl-1H-pyrazol-4-yl)amino)-5-(trifluoromethyl)pyrimidin-4-yl)-N-(2,2,2-trifluoroethyl)-8-azabicyclo[3.2.1]oct-2-ene-8-carboxamide]
Second: Cn1cc(Nc2ncc(F)c(C3=C[C@@H]4CC[C@H](C3)N4C(=O)NCC(F)(F)F)n2)cn1 (single isomer, unassigned) [Compound 12-a]
The IC50 of the first is higher: 300 to 1000 nM for the first, < 100 nM for the second.

`CCCS(=O)(=O)N1CC(N2C3C=C(c4ccnc(Nc5cnn(C)c5)n4)CC2CC3)C1` (stereo not shown) [Compound 84, N-(1-methyl-1H-pyrazol-4-yl)-4-(8-(1-(propansulfonyl)azetidin-3-yl)-8-azabicyclo[3.2.1]oct-2-en-3-yl)pyrimidin-2-amine] and `Cn1cc(Nc2nccc(C3=CC4CCC(C3)N4C(=O)N3CC(C#N)C3)n2)cn1` (stereo not shown) [Compound 10, 1-(3-(2-((1-methyl-1H-pyrazol-4-yl)amino)pyrimidin-4-yl)-8-azabicyclo[3.2.1]oct-2-ene-8-carbonyl)azetidine-3-nitrile] cannot be ordered by IC50: > 1000 nM for the first, > 1000 nM for the second.

`Cn1cc(Nc2ncc(Cl)c(C3=CC4CCC(C3)N4C(=O)NCC(F)(F)F)n2)cn1` (stereo not shown) [Compound 20, 3-(5-chloro-2-((1-methyl-1H-pyrazol-4-yl)amino)pyrimidin-4-yl)-N-(2,2,2-trifluoroethyl)-8-azabicyclo[3.2.1]oct-2-ene-8-carboxamide] and `Cn1cc(Nc2nccc(C3=C[C@@H]4CC[C@H](C3)N4C(=O)NCC(F)(F)F)n2)cn1` [Compound 3-a, (1S,5R)-3-(2-((1-methyl-1H-pyrazol-4-yl)amino)pyrimidin-4-yl)-N-(2,2,2-trifluoroethyl)-8-azabicyclo[3.2.1]oct-2-ene-8-carboxamide] cannot be ordered by IC50: < 100 nM for the first, < 100 nM for the second.

Compared with `Cc1cnc(Nc2cnn(C)c2C)nc1C1=CC2CCC(C1)N2C(=O)NCC(F)(F)F` (stereo not shown) [Compound 27, 3-(2-((1,5-dimethyl-1H-pyrazol-4-yl)amino)-5-methylpyrimidin-4-yl)-N-(2,2,2-trifluoroethyl)-8-azabicyclo[3.2.1]oct-2-ene-8-carboxamide], `Cc1cnc(Nc2cn(C)nc2C)nc1C1=CC2CCC(C1)N2C(=O)NCC(F)(F)F` (stereo not shown) [Compound 26, 3-(2-((1,3-dimethyl-1H-pyrazol-4-yl)amino)-5-methylpyrimidin-4-yl)-N-(2,2,2-trifluoroethyl)-8-azabicyclo[3.2.1]oct-2-ene-8-carboxamide] is lower in IC50: 300 to 1000 nM for the first, < 100 nM for the second.

`Cn1cc(Nc2nccc(C3=CC4CCC(C3)N4C(=O)C3(C#N)CCOCC3)n2)cn1` (stereo not shown) [Compound 64, 4-(3-(2-((1-methyl-1H-pyrazol-4-yl)amino)pyrimidin-4-yl)-8-azabicyclo[3.2.1]oct-2-ene-8-carbonyl)tetrahydro-2H-pyran-4-cyano] and `Cn1cc(Nc2nccc(C3=CC4CCC(C3)N4C(=O)N3CCC(F)(F)C3)n2)cn1` (stereo not shown) [Compound 8, (3,3-difluoropyrrolidin-1-yl)(3-(2-((1-methyl-1H-pyrazol-4-yl)amino)pyrimidin-4-yl)-8-azabicyclo[3.2.1]oct-2-en-8-yl)methanone] fall in the same range of IC50: 300 to 1000 nM for the first, 300 to 1000 nM for the second.

Compared with `Cc1cnc(Nc2cnn(C)c2)nc1C1=C[C@@H]2CC[C@H](C1)N2C(=O)[C@@H]1CC1(F)F` [Compound 22-a, ((S)-2,2-difluorocyclopropyl)((1S,5R)-3-(5-methyl-2-((1-methyl-1H-pyrazol-4-yl)amino)pyrimidin-4-yl)-8-azabicyclo[3.2.1]oct-2-en-8-yl)methanone], `Cc1cnc(Nc2cnn(C3CC3)c2)nc1C1=CC2CCC(C1)N2C(=O)NCC(F)(F)F` (stereo not shown) [Compound 31, 3-(2-((1-Cyclopropyl-1H-pyrazol-4-yl)amino)-5-methylpyrimidin-4-yl)-N-(2,2,2-trifluoroethyl)-8-azabicyclo[3.2.1]oct-2-ene-8-carboxamide] is lower in IC50: 100 to 300 nM for the first, < 100 nM for the second.

First: Cn1cc(Nc2nccc(C3=CC4CCC(C3)N4C(=O)CCC(F)(F)F)n2)cn1 (stereo not shown) [Compound 5, 4,4,4-trifluoro-1-(3-(2-((1-methyl-1H-pyrazol-4-yl)amino)pyrimidin-4-yl)-8-azabicyclo[3.2.1]oct-2-en-8-yl)butan-1-one]
Second: Cn1cc(Nc2nccc(C3=CC4CCC(C3)N4C(=O)NCCOC(F)(F)F)n2)cn1 (stereo not shown) [Compound 58, 3-(2-((1-methyl-1H-pyrazol-4-yl)amino)pyrimidin-4-yl)-N-(2-(trifluoromethoxy)ethyl)-8-azabicyclo[3.2.1]oct-2-ene-8-carboxamide]
The IC50 of the first is higher: 300 to 1000 nM for the first, 100 to 300 nM for the second. The second is the more potent here.

`Cn1cc(Nc2nccc(C3=CC4CCC(C3)N4C(=O)CC3CC(F)(F)C3)n2)cn1` (stereo not shown) [Compound 79, 2-(3,3-difluorocyclobutyl)-1-(3-(2-((1-methyl-1H-pyrazol-4-yl)amino)pyrimidin-4-yl)-8-azabicyclo[3.2.1]oct-2-en-8-yl)-1-acetone] and `Cn1cc(Nc2nccc(C3=CC4CCC(C3)N4C(=O)NCC(F)F)n2)cn1` (stereo not shown) [Compound 44, N-(2,2-difluoroethyl)-3-(2-((1-methyl-1H-pyrazol-4-yl)amino)pyrimidin-4-yl)-8-azabicyclo[3.2.1]oct-2-ene-8-carboxamide] cannot be ordered by IC50: < 100 nM for the first, < 100 nM for the second.

`O=C(NCC(F)(F)F)N1C2C=C(c3nc(Nc4cnn(C(F)F)c4)ncc3F)CC1CC2` (stereo not shown) [Compound 24, 3-(2-((1-(difluoromethyl)-1H-pyrazol-4-yl)amino)-5-fluoropyrimidin-4-yl)-N-(2,2,2-trifluoroethyl)-8-azabicyclo[3.2.1]oct-2-ene-8-carboxamide] and `O=C(NCC(F)(F)F)N1C2C=C(c3ccnc(Nc4cnn(C5CC5)c4)n3)CC1CC2` (stereo not shown) [Compound 43, 3-(2-((1-cyclopropyl-1H-pyrazol-4-yl)amino)pyrimidin-4-yl)-N-(2,2,2-trifluoroethyl)-8-azabicyclo[3.2.1]oct-2-ene-8-carboxamide] cannot be ordered by IC50: < 100 nM for the first, < 100 nM for the second.

First: Cn1cc(Nc2nccc(C3=CC4CCC(C3)N4C(=O)C3CC3c3ccccc3)n2)cn1 (stereo not shown) [Compound 59]
Second: Cn1cc(Nc2nccc(C3=CC4CCC(C3)N4C(=O)c3ccc(C(F)(F)F)cc3)n2)cn1 (stereo not shown) [Compound 16, (3-(2-((1-methyl-1H-pyrazol-4-yl)amino)pyrimidin-4-yl)-8-azabicyclo[3.2.1]oct-2-en-8-yl)(4-(trifluoromethyl)phenyl)methanone]
The IC50 of the first is lower: 300 to 1000 nM for the first, > 1000 nM for the second.
